Values joined by “and” are separate entries in the source; they are usually repeats but may differ in a detail not shown here. Equal entries are not always repeated.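 96-well plates; 48 h exposure; 5 concentrations. Endpoints by linear interpolation between flanking doses. Not reached: highest tested concentration assigned. Here, GI50 denotes the concentration required for 50% inhibition of growth. TGI: concentration producing complete growth inhibition.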
Tests used:
Assay in all cases: NCI-60 cell line screen, 48 h
T-47D breast = system: T-47D breast
MALME-3M melanoma = system: MALME-3M melanoma
SK-OV-3 ovarian = system: SK-OV-3 ovarian
NCI-H23 lung = system: NCI-H23 lung
SF-295 CNS = system: SF-295 CNS
SF-268 CNS = system: SF-268 CNS
COLO 205 colon = system: COLO 205 colon
RXF 393 renal = system: RXF 393 renal
SK-MEL-5 melanoma = system: SK-MEL-5 melanoma
MDA-MB-231 breast = system: MDA-MB-231 breast

With `O=S(=O)(Nc1ccc(-c2nc(-c3cccc(OCCN4CCOCC4)c3)c(-c3ccnc(Br)c3)[nH]2)cc1)c1ccccc1` the GI50 (T-47D breast) was 2.86 µM, the TGI (T-47D breast) was 28.6 µM and the GI50 (MALME-3M melanoma) was 2.2 µM. For the same compound, the TGI (MALME-3M melanoma) was 56.9 µM, the GI50 (SK-OV-3 ovarian) was 3.81 µM and the TGI (SK-OV-3 ovarian) was > 100 µM. The GI50 (NCI-H23 lung) was 2.43 µM, the TGI (NCI-H23 lung) was 8.71 µM and the GI50 (SF-295 CNS) was 1.72 µM. The TGI (SF-295 CNS) was 4.1 µM, the GI50 (SF-268 CNS) was 4.23 µM and the TGI (SF-268 CNS) was > 100 µM. The GI50 (COLO 205 colon) was 3.54 µM, the TGI (COLO 205 colon) was > 100 µM and the GI50 (RXF 393 renal) was 2.26 µM. It also gave a TGI (RXF 393 renal) of 6.78 µM, a GI50 (SK-MEL-5 melanoma) of 2.12 µM and a TGI (SK-MEL-5 melanoma) of 4.6 µM. For the same compound, the GI50 (MDA-MB-231 breast) was 3.23 µM and the TGI (MDA-MB-231 breast) was 63.6 µM.
`CN(C(=O)c1ccc(F)cc1C(F)(F)F)C1CCN(c2nnc(-c3ccnn3C)c3ccccc23)CC1` showed a GI50 (T-47D breast) of 10.6 µM, a TGI (T-47D breast) of 99.4 µM and a GI50 (MALME-3M melanoma) of 23.6 µM. For the same compound, the TGI (MALME-3M melanoma) was > 100 µM, the GI50 (SK-OV-3 ovarian) was > 77.9 µM and the TGI (SK-OV-3 ovarian) was > 100 µM. The GI50 (NCI-H23 lung) was 29.3 µM, the TGI (NCI-H23 lung) was > 100 µM and the GI50 (SF-295 CNS) was 31.5 µM. The TGI (SF-295 CNS) was > 100 µM, the GI50 (SF-268 CNS) was > 74.5 µM and the TGI (SF-268 CNS) was > 100 µM. For the same compound, the GI50 (COLO 205 colon) was 32.9 µM, the TGI (COLO 205 colon) was > 100 µM and the GI50 (RXF 393 renal) was 17.4 µM. For the same compound, the TGI (RXF 393 renal) was > 84.3 µM, the GI50 (SK-MEL-5 melanoma) was 11.6 µM and the TGI (SK-MEL-5 melanoma) was 30 µM. For the same compound, the GI50 (MDA-MB-231 breast) was 37.8 µM and the TGI (MDA-MB-231 breast) was > 100 µM.
For `Cc1ccc(S(=O)(=O)N(C)C)cc1[N+](=O)[O-]`, the GI50 (T-47D breast) was > 100 µM, the TGI (T-47D breast) was > 100 µM and the GI50 (MALME-3M melanoma) was > 100 µM. For the same compound, the TGI (MALME-3M melanoma) was > 100 µM, the GI50 (SK-OV-3 ovarian) was > 100 µM and the TGI (SK-OV-3 ovarian) was > 100 µM. For the same compound, the GI50 (NCI-H23 lung) was > 100 µM, the TGI (NCI-H23 lung) was > 100 µM and the GI50 (SF-295 CNS) was > 100 µM. The TGI (SF-295 CNS) was > 100 µM, the GI50 (SF-268 CNS) was > 100 µM and the TGI (SF-268 CNS) was > 100 µM. For the same compound, the GI50 (COLO 205 colon) was > 100 µM, the TGI (COLO 205 colon) was > 100 µM and the GI50 (RXF 393 renal) was > 100 µM. For the same compound, the TGI (RXF 393 renal) was > 100 µM, the GI50 (SK-MEL-5 melanoma) was > 100 µM and the TGI (SK-MEL-5 melanoma) was > 100 µM. For the same compound, the GI50 (MDA-MB-231 breast) was > 100 µM and the TGI (MDA-MB-231 breast) was > 100 µM.
`COc1ccc(C(CC(=O)c2ccccc2)C(C(=O)c2ccccc2)C(c2ccc(OC)cc2)C2C(=O)NC(=O)NC2=O)cc1` (stereo unspecified) was tested, and the GI50 (T-47D breast) was 21.6 µM, the TGI (T-47D breast) was > 100 µM and the GI50 (MALME-3M melanoma) was 33.1 µM. The TGI (MALME-3M melanoma) was > 100 µM, the GI50 (SK-OV-3 ovarian) was > 100 µM and the TGI (SK-OV-3 ovarian) was > 100 µM. For the same compound, the GI50 (NCI-H23 lung) was 37.3 µM, the TGI (NCI-H23 lung) was > 100 µM and the GI50 (SF-295 CNS) was 23.2 µM. The TGI (SF-295 CNS) was > 100 µM, the GI50 (SF-268 CNS) was 12.8 µM and the TGI (SF-268 CNS) was 75.4 µM. For the same compound, the GI50 (COLO 205 colon) was 3.43 µM, the TGI (COLO 205 colon) was 19.1 µM and the GI50 (RXF 393 renal) was 22.6 µM. For the same compound, the TGI (RXF 393 renal) was > 100 µM, the GI50 (SK-MEL-5 melanoma) was 12.5 µM and the TGI (SK-MEL-5 melanoma) was 31.8 µM. It also gave a GI50 (MDA-MB-231 breast) of 2.24 µM and a TGI (MDA-MB-231 breast) of 16.2 µM.
`Brc1c[n+](Cc2ccc3ccccc3c2)cn1Cc1ccc2ccccc2c1` was tested, and the GI50 (T-47D breast) was 2.14 µM, the TGI (T-47D breast) was 7.2 µM and the GI50 (MALME-3M melanoma) was 1.22 µM. It also gave a TGI (MALME-3M melanoma) of 2.71 µM, a GI50 (SK-OV-3 ovarian) of 2.56 µM and a TGI (SK-OV-3 ovarian) of 11.4 µM. For the same compound, the GI50 (NCI-H23 lung) was 1.35 µM, the TGI (NCI-H23 lung) was 3.18 µM and the GI50 (SF-295 CNS) was 2.22 µM. The TGI (SF-295 CNS) was 7.28 µM, the GI50 (SF-268 CNS) was 1.47 µM and the TGI (SF-268 CNS) was 3.02 µM. It also gave a GI50 (COLO 205 colon) of 1.31 µM, a TGI (COLO 205 colon) of 3.16 µM and a GI50 (RXF 393 renal) of 2.51 µM. For the same compound, the TGI (RXF 393 renal) was 6.75 µM, the GI50 (SK-MEL-5 melanoma) was 1.6 µM and the TGI (SK-MEL-5 melanoma) was 2.96 µM. For the same compound, the GI50 (MDA-MB-231 breast) was 1.4 µM and the TGI (MDA-MB-231 breast) was 2.86 µM.
`Cc1c(Cl)cccc1NC(=O)CC1Sc2ccccc2NC1=O` (stereo unspecified) was tested, and the TGI (T-47D breast) was 86.5 µM, the TGI (MALME-3M melanoma) was 50.7 µM and 47.2 µM and the TGI (SK-OV-3 ovarian) was 33 µM and 39.3 µM. The TGI (NCI-H23 lung) was 70 µM and > 100 µM, the TGI (SF-295 CNS) was 58.9 µM and > 100 µM and the GI50 (SF-268 CNS) was 18.4 µM and 37.1 µM. For the same compound, the TGI (SF-268 CNS) was 46.6 µM and > 100 µM, the TGI (COLO 205 colon) was > 100 µM and the TGI (RXF 393 renal) was 28 µM and 41.6 µM. For the same compound, the TGI (SK-MEL-5 melanoma) was 67.7 µM and > 100 µM and the TGI (MDA-MB-231 breast) was 32.1 µM.
In the case of `CO/N=C(\c1ccccc1)c1cnn(-c2ccccc2)c1N`, the GI50 (T-47D breast) is reported as > 25 µM, the TGI (T-47D breast) is reported as > 25 µM and the GI50 (MALME-3M melanoma) is reported as > 25 µM. The TGI (MALME-3M melanoma) was > 25 µM, the GI50 (SK-OV-3 ovarian) was > 25 µM and the TGI (SK-OV-3 ovarian) was > 25 µM. The GI50 (NCI-H23 lung) was > 25 µM, the TGI (NCI-H23 lung) was > 25 µM and the GI50 (SF-295 CNS) was > 25 µM. For the same compound, the TGI (SF-295 CNS) was > 25 µM, the GI50 (SF-268 CNS) was > 25 µM and the TGI (SF-268 CNS) was > 25 µM. For the same compound, the GI50 (COLO 205 colon) was > 25 µM, the TGI (COLO 205 colon) was > 25 µM and the GI50 (RXF 393 renal) was > 25 µM. The TGI (RXF 393 renal) was > 25 µM, the GI50 (SK-MEL-5 melanoma) was > 25 µM and the TGI (SK-MEL-5 melanoma) was > 25 µM. For the same compound, the GI50 (MDA-MB-231 breast) was > 25 µM and the TGI (MDA-MB-231 breast) was > 25 µM.

— PubChem BioAssay (NCI)
